The record followed here is patent US20220227729A1, “IDENTIFICATION AND USE OF KRAS INHIBITORS” (Bayer Aktiengesellschaft, priority 2019, published 2022).

The target of one test is KRAS^WT (Homo sapiens, UniProt P01116). In words: Wild-type KRAS activation by SOS1cat assay, HTRF. To be noted: SOS1cat mediated loading of GST-KRAS WT-GDP with fluorescent GTP analogue; 50 nM GST-KRAS WT; read-out: IC50 value biochemical KRAS^wt activation assay. The procedure: (§1) Preparation of test compound dilutions. A 100-fold concentrated solution of the test compound (50 nL) in DMSO was transferred to microtiter test plates (384 or 1,536 wells, Greiner Bio-One, Germany) using either a Hummingbird liquid handler (Digilab, MA, USA) or an Echo acoustic system (Labcyte, CA, USA). Plates were sealed with adhesive foil or heat-sealed and stored at −20° C. until use. Serial dilutions of test compounds were prepared in 100% DMSO using a Precision Pipetting System (BioTek, USA).
(§2) Measurement and evaluation of inhibition data, calculation of IC50 values. Homogeneous time-resolved fluorescence (HTRF) was measured with a PHERAstar reader (BMG, Germany) using the HTRF module (excitation: 337 nm; emission 1: 620 nm, emission 2: 665 nm). The ratio of the emissions at 665 and 620 nm was used as the specific signal for further evaluation. The data were normalized using the controls: DMSO=0% inhibition, inhibition control wells with inhibitor control solution=100% inhibition. Compounds were tested in duplicates at up to 11 concentrations (e.g. 20 μM, 5.7 μM, 1.6 μM, 0.47 μM, 0.13 μM, 38 nM, 11 nM, 3.1 nM, 0.89 nM, 0.25 nM and 0.073 nM). IC50 values were calculated using a four-parameter fit, with a commercial software package (Genedata Screener, Switzerland).
(§3) KRAS^G12C activation by SOS1^cat assay (“On-assay”). This assay quantifies SOS1^cat mediated loading of KRAS^G12C-GDP with a fluorescent GTP analogue. Detection of successful loading was achieved by measuring resonance energy transfer from anti-GST-terbium (FRET donor) bound to GST-KRAS^G12c to the loaded fluorescent GTP analogue (FRET acceptor). The fluorescent GTP analogue EDA-GTP-DY-647P1 [2′/3′-O-(2-aminoethyl-carbamoyl)guanosine-5′-triphosphate labelled with DY-647P1 (Dyomics GmbH, Germany)] was synthesized by Jena Bioscience (Germany) and supplied as a 1 mM aqueous solution. A KRAS^G12C working solution was prepared in assay buffer [10 mM HEPES pH 7.4 (AppliChem), 150 mM NaCl (Sigma), 5 mM MgCl2 (Sigma), 1 mM DTT (Thermo Fisher), 0.05% BSA Fraction V pH 7.0 (ICN Biomedicals), 0.0025% (v/v) Igepal (Sigma)] containing 100 nM GST-KRAS^G12C and 2 nM anti-GST-terbium (Cisbio, France). A SOS1^cat working solution was prepared in assay buffer containing 20 nM SOS1^cat and 200 nM EDA-GTP-DY-647P1. An inhibitor control solution was prepared in assay buffer containing 200 nM EDA-GTP-DY-647P1 without SOS1^cat. All steps of the assay were performed at 20° C. A volume of 2.5 μL of the KRAS^G12C working solution was added to all wells of the test plate using a Multidrop dispenser (Thermo LabSystems). After 180 min, 2.5 μL of the SOS1^cat working solution was added to all wells, except for the inhibitor control solution wells. After 30 min incubation, HTRF was measured.
Wild-type KRAS activation by SOS1^cat assay. This assay quantifies human SOS1^cat mediated loading of wild-type GST-KRAS^WT-GDP with a fluorescent GTP analogue. The assay was performed similar to the KRAS^G12C activation by SOS1^cat assay. GST-KRAS^G12C was replaced by GST-KRAS^WT, which was used at 50 nM final concentration.
Background: TR-FRET usually uses a lanthanide donor and a delayed reading to cut background.

The target of test [1] is recombinant kRas mutant (G12C; C51S; C80L; C118S) (Homo sapiens, UniProt P01116, C118S/C51S/C80L/G12C). In words: Covalent binding assay, intact mass LC-MS. To be noted: 25 μM protein, 25 μM compound, room temperature, 2 h. The procedure:
The percentage of covalent adduct formation at KRas G12C was determined by intact mass determination. To this end 25 μM recombinant kRas mutant (G12C; C51S; C80L; C118S) (storage buffer: 50 mM Tris, pH=8; 50 mM NaCl) were incubated with 25 μM of compound (1% v/v final DMSO concentration) at room temperature for 2 h. For LC-MS analysis the reaction was acidified by adding 4 μL of 4% v/v TFA to 20 μL reaction volume.
Liquid chromatography-mass spectrometry (LC-MS) analysis was performed using a Waters SYNAPT G2-S quadrupole time-of-flight mass spectrometer connected to a Waters nanoAcquity UPLC system. Samples were loaded on a 2.1×5 mm mass prep C4 guard column (Waters) and desalted with a short gradient (3 min.) of increasing concentrations of acetonitrile at a flow rate of 100 μL/min. Spectra were analyzed by using MassLynx v4.1 software and deconvoluted with the MaxEnt1 algorithm.
Percent conversion was determined by the ratio of signal intensities of apo-kRas and kRas+inhibitor.

A further test has as its target KRAS^G12C (Homo sapiens, UniProt P01116, G12C). The test is described as follows: KRAS G12C activation by SOS1cat assay (On-assay), HTRF. To be noted: SOS1cat mediated loading of GST-KRAS G12C-GDP with fluorescent GTP analogue; 180 min preincubation; 20° C.; read-out: IC50 value biochemical KRAS^G12C activation assay. The procedure: as §1, §2, §3

Where only a bound is given, the exact number is not on record here.

Consider `C=CC(=O)N1CCC(c2cc3ncc(-c4c(F)cccc4OC)cc3c(=O)[nH]2)C1` (stereo not drawn) [Example 28, 3-(2-Fluoro-6-methoxyphenyl)-7-[1-(prop-2-enoyl)pyrrolidin-3-yl]-1,6-naphthyridin-5(6H)-one], for which the concentration for half-maximal inhibition (IC50) (commonly the point on the concentration scale where inhibition reaches its midpoint) is over 20 µM on KRAS^WT and 10 µM on KRAS^G12C. Further, the “Covalent Binding Assay (% binding)” value in test [1] is reported as 52%.

For `C=CC(=O)N1CCC(c2nc3ccc(-c4c(O)cccc4F)nc3c(=O)[nH]2)C1` (stereo not drawn) [Example 38, 6-(2-Fluoro-6-hydroxyphenyl)-2[1-(prop-2-enoyl)pyrrolidin-3-yl]pyrido[3,2-d]pyrimidin-4(3H)-one], the half-inhibitory concentration (IC50) on KRAS^WT and at KRAS^G12C was over 20 µM throughout. Moreover, the “Covalent Binding Assay (% binding)” value in test [1] is on record as 0%.

As to `C=CC(=O)N1CCC(c2cc3ncc(-c4cccc5ncccc45)cc3c(=O)[nH]2)C1` (stereo not drawn) [Example 32, 7-[1-(Prop-2-enoyl)pyrrolidin-3-yl]-3-(quinolin-5-yl)-1,6-naphthyridin-5(6H)-one], the concentration for half-maximal inhibition (IC50) on KRAS^WT and on KRAS^G12C was over 20 µM in each case. In test [1], the “Covalent Binding Assay (% binding)” value came out at 13%.

Consider `C=CC(=O)N1CCC(c2nc3ccc(-c4cccc5ncccc45)cc3c(=O)[nH]2)C1` (stereo not drawn) [Example 14, 2-[1-(Prop-2-enoyl)pyrrolidin-3-yl]-6-(quinolin-5-yl)quinazolin-4(3H)-one], for which the IC50 at KRAS^WT and at KRAS^G12C was over 20 µM throughout. For the same compound, the “Covalent Binding Assay (% binding)” value in test [1] came out at 22%.

Take `C=CC(=O)N1CCC(c2cc3cc(O)c(-c4ncccc4F)cc3c(=O)[nH]2)C1` (stereo not drawn) [Example 10, 3-(1-Acryloylpyrrolidin-3-yl)-7-(3-fluoropyridin-2-yl)-6-hydroxy-isoquinolin-1(2H)-one]: the concentration for half-maximal inhibition (IC50) on KRAS^WT and on KRAS^G12C was over 20 µM each time. In addition, in test [1], the “Covalent Binding Assay (% binding)” value is reported as 0%.

Regarding `C=CC(=O)N1CCC(c2cc3cc(OC)c(-c4ncccc4F)cc3c(=O)[nH]2)C1` (stereo not drawn) [Example 9, 7-(3-Fluoropyridin-2-yl)-6-methoxy-3-[-1-(prop-2-enoyl)pyrrolidin-3-yl]isoquinolin-1(2H)-one], the half-maximal inhibitory concentration (IC50) on KRAS^WT and on KRAS^G12C was over 20 µM throughout. Moreover, the “Covalent Binding Assay (% binding)” value in test [1] is reported as 0%.

`C=CC(=O)N1CCC(c2cc3cnc(-c4c(F)cccc4OC)cc3c(=O)[nH]2)C1` (stereo not drawn) [Example 41, 7-(2-Fluoro-6-methoxyphenyl)-3-[1-(prop-2-enoyl)pyrrolidin-3-yl]-2,6-naphthyridin-1(2H)-one]: the IC50 at KRAS^WT and on KRAS^G12C was over 20 µM throughout. In addition, the “Covalent Binding Assay (% binding)” value in test [1] came to 32%.

With `C=CC(=O)N1CCC(c2nc3ccc(-c4cccnc4N4CCOCC4)cc3c(=O)[nH]2)C1` (stereo not drawn) [Example 20, 6-[2-(Morpholin-4-yl)pyridin-3-yl]-2-[1-(prop-2-enoyl)pyrrolidin-3-yl]quinazolin-4(3H)-one], the IC50 at KRAS^WT and at KRAS^G12C was over 20 µM each time. Further, in test [1], the “Covalent Binding Assay (% binding)” value came out at 3%.

Consider `C=CC(=O)N1CCC(c2nc3ccc(-c4c(F)cccc4OC)cc3c(=O)[nH]2)C1` (stereo not drawn) [Example 11], for which the IC50 is over 20 µM on KRAS^WT and 16 µM at KRAS^G12C. Further, the “Covalent Binding Assay (% binding)” value in test [1] turned out to be 41%.

Turning to `C=CC(=O)N1CCC(c2nc3cnc(-c4c(O)cccc4F)cc3c(=O)[nH]2)C1` (stereo not drawn) [Example 39, 6-(2-Fluoro-6-hydroxyphenyl)-2-[1-(prop-2-enoyl)pyrrolidin-3-yl]pyrido[3,4-d]pyrimidin-4(3H)-one], the IC50 on KRAS^WT was over 20 µM; on KRAS^G12C, 2.6 µM. For the same compound, the “Covalent Binding Assay (% binding)” value in test [1] is recorded as 73%.

Regarding `C=CC(=O)N1CCC(c2cc3ncc(-c4ccc(F)cc4F)cc3c(=O)[nH]2)C1` (stereo not drawn) [Example 31, 3-(2,4-Difluorophenyl)-7-[1-(prop-2-enoyl)pyrrolidin-3-yl]-1,6-naphthyridin-5(6H)-one], the values for the IC50 at KRAS^WT and at KRAS^G12C were over 20 µM and over 14 µM, respectively. In addition, the “Covalent Binding Assay (% binding)” value in test [1] was 62%.

Take `C=CC(=O)N1CCC(c2cc3ncc(-c4sc(C)nc4C)cc3c(=O)[nH]2)C1` (stereo not drawn) [Example 34, 3-(2,4-Dimethyl-1,3-thiazol-5-yl)-7-[1-(prop-2-enoyl)pyrrolidin-3-yl]-1,6-naphthyridin-5(6H)-one]: the 50% inhibitory concentration (IC50) at KRAS^WT and at KRAS^G12C was over 20 µM each time. Also, the “Covalent Binding Assay (% binding)” value in test [1] was determined as 0%.

For `C=CC(=O)N1CCC(c2nc3cnc(-c4c(C)ccc5[nH]ncc45)cc3c(=O)[nH]2)C1` (stereo not drawn) [Example 40, 6-(5-Methyl-1H-indazol-4-yl)-2-[1-(prop-2-enoyl)pyrrolidin-3-yl]pyrido[3,4-d]pyrimidin-4(3H)-one], the IC50 is over 20 µM on KRAS^WT and 4.7 µM at KRAS^G12C. For the same compound, the “Covalent Binding Assay (% binding)” value in test [1] is on record as 66%.

Take `C=CC(=O)N1CCC(c2cc3ncc(-c4cccnc4N4CCOCC4)cc3c(=O)[nH]2)C1` (stereo not drawn) [Example 35, 3-[2-(Morpholin-4-yl)pyridin-3-yl]-7-[1-(prop-2-enoyl)pyrrolidin-3-yl]-1,6-naphthyridin-5(6H)-one]: the IC50 at KRAS^WT and at KRAS^G12C was over 20 µM throughout. Further, in test [1], the “Covalent Binding Assay (% binding)” value is 0%.

Take `C=CC(=O)N1CCC(c2nc3ccc(-c4cc(Cl)cc(C#N)c4)cc3c(=O)[nH]2)C1` (stereo not drawn) [Example 16, 3-Chloro-5-{4-oxo-2-[1-(prop-2-enoyl)pyrrolidin-3-yl]-3,4-dihydroquinazolin-6-yl}benzonitrile]: the 50% inhibitory concentration (IC50) on KRAS^WT and at KRAS^G12C was over 20 µM each time. In addition, in test [1], the “Covalent Binding Assay (% binding)” value is 0%.

On to `C=CC(=O)N1CCC(c2nc3ccc(-c4ccccc4CC)cc3c(=O)[nH]2)C1` (stereo not drawn) [Example 15, 6-(2-Ethylphenyl)-2-[1-(prop-2-enoyl)pyrrolidin-3-yl]quinazolin-4(3H)-one], for which the half-maximal inhibitory concentration (IC50) at KRAS^WT was over 20 µM; at KRAS^G12C, 7.3 µM. In addition, the “Covalent Binding Assay (% binding)” value in test [1] was 52%.

For `C=CC(=O)N1CCC(c2nc3ccc(-c4ccc(F)cc4F)cc3c(=O)[nH]2)C1` (stereo not drawn) [Example 13, 6-(2,4-Difluorophenyl)-2-[1-(prop-2-enoyl)pyrrolidin-3-yl]quinazolin-4(3H)-one], the IC50 on KRAS^WT was over 20 µM; at KRAS^G12C, 8.4 µM. Further, the “Covalent Binding Assay (% binding)” value in test [1] is given as 57%.

Consider `C=CC(=O)N1CCC(c2cc3ccc(-c4cccc5[nH]ccc45)cc3c(=O)[nH]2)C1` (stereo not drawn) [Example 3, 7-(1H-Indol-4-yl)-3-[1-(prop-2-enoyl)pyrrolidin-3-yl]isoquinolin-1(2H)-one], for which the concentration for half-maximal inhibition (IC50) on KRAS^WT and at KRAS^G12C was over 20 µM in each case. In addition, the “Covalent Binding Assay (% binding)” value in test [1] turned out to be 8%.
